Source: patent US20260248852A1, “SYNTHETIC ANTIGEN RECEPTORS FOR COVALENT IMMUNE RECRUITERS AND METHODS AND USES THEREOF” (McMaster University, priority 2022, published 2026)
Entries after “also recorded” stand apart in the source; their conditions may differ.

Assays:
[1] = tested on: Anti-DNP DAP12-SAR GDT cells; assay: Labeling time course of Anti-DNP DAP12-SAR GDT cells with CIR/(N)CIR; format: binding, human; details: 10 nM, 100 nM, 1 uM, up to 3 hours
Procedure: (§1) Engineered GDT-cells: PBMCs were seeded at 4E6 cells per well in a 24 well G-Rex plate in the presence of 1 ug/ml zoledronate and 1.5 ng/ml human IL2. Three days later, the cells were incubated overnight in a 24 well non tissue culture treated plate that was pre coated with retronectin and retrovirus supernatant containing viruses encoding either the Anti-DNP DAP12-SAR or the Anti-DNP CD28 CAR. The cells were then transferred back to the G-Rex plate and cultured for a further 11 days at which point, the cell product was collected, CD4/CD8 T cells were removed by magnetic selection and the purified engineered GDT cells were cryopreserved.
(§2) Flow cytometry: To assess the fraction of GDT cells which express the Anti-DNP synthetic antigen receptor, the cells were stained with the following antibodies/fluorophores: Myc biotin, streptavidin PE, vδ2 APC, TCR ab FITC, and CD3 BV605. The CD3 BV605, TCR ab FITC, and Vδ2 APC were used to specifically gate on Vδ2 GDT-cells. The anti-Myc biotin and streptavidin PE secondary were used to assess transduction level.
(§3) For labeling time-course studies, T-cells were incubated with varying concentrations (10 nM, 100 nM, 1 uM) of either DNP-Acyl Imidazole-Desthiobiotin or DNP-Desthiobiotin for different time periods up to 3 hours at room temperature in FACs buffer. […]

[2] = tested on: Anti-DNP TAC T cells (anti-DNP scFv containing T-cells); assay: Labeling of Anti-DNP TAC ABT cells with CIR/(N)CIR, Streptavidin-PE flow cytometry; format: binding, human; details: 1 uM; for labeling time course (binding): 10 nM, 100 nM, up to 3 hours at room temperature, washed; for covalent binding and labeling of T cells (Streptavidin-PE): Anti-DNP TAC ABT cells, overnight at 4 degrees, washed 3 times
Procedure: (§4) Labeling with CIR/(N)CIR: ABT-cells were labelled overnight at 4 degrees in T-cell media with 1 uM of either DNP-Acyl Imidazole-Desthiobiotin or DNP-Desthiobiotin. DNP-Glycine competitor was also added to some conditions with at 200 uM as a competitor to assess labelling specificity. After the overnight incubation the samples were washed 3 times with FACs buffer to remove any non-covalently bound molecule and stained with Streptavidin-PE to assess labelling. The samples were also stained with near IR Live/Dead, anti-CD4 Pacific Blue, and anti-CD8 Alexa fluor 700 to allow for appropriate gating on live ABT-cells. The samples were assessed for Streptavidin-PE labelling via flow cytometry.
For labeling time-course studies, T-cells were incubated with varying concentrations (10 nM, 100 nM, 1 uM) of either DNP-Acyl Imidazole-Desthiobiotin or DNP-Desthiobiotin for different time periods up to 3 hours at room temperature in FACs buffer. The “0” hour time point was the final time point and accounts for the 5-minute period needed to spike in CIR/(N)CIR and spin down to stop labelling. After adding DNP-Acyl Imidazole-Desthiobiotin or DNP-Desthiobiotin to all time points the cells were washed 3 times and stained for flow cytometry analysis as described above.
as §4, with “either DNP-SuFEx-Desthiobiotin,” for “either”, “αβ T-cells.” for “ABT-cells.”

[3] = tested on: Anti-DNP CD28 CAR GDT cells; assay: Labeling time course of Anti-DNP CD28 CAR GDT cells with CIR/(N)CIR; format: binding, human; details: 10 nM, 100 nM, 1 uM, up to 3 hours
Procedure: as §1, §2, §3

[4] = tested on: PSMA-positive LNCaP cells; assay: Anti-DNP TAC ABT cell mediated killing of LNCaP cells (Incucyte); format: cell-based, human
Procedure: Measuring T cell mediated killing of LNCaP cells: LNCaP prostate cancer cells, which are prostate specific membrane antigen (PSMA) positive, were engineered with Nuclight Red lentivirus to produce cells with nuclear localized red fluorescence to allow for ease of imaging in these experiments. […] The 3 components were co-cultured for 3 days with 4 images per well taken every 6 hours. Samples were run in triplicate. The number of LnCap cells per well at each time point was calculated using the Incucyte cell by cell analysis software and plotted. The area under the growth curve was used as a metric for tumor cell growth for this figure. The larger the area, the greater the tumor cell growth that occurred over the 3 days. The area under the curve for the LnCap control and each condition were used to calculate the % cytotoxicity.

[5] = tested on: HEK293-PSMA cells (PSMA expressing); assay: Cytokine production of engineered ABT cells following stimulation with HEK293-PSMA cells; format: cell-based, human
Procedure: Measuring cytokine production following stimulation with HEK-293 cells: In a 96 well round bottom plate, 4E5 HEK293-PSMA cells (PSMA expressing) or HEK293-WT cells were incubated with 4E5 Anti-DNP TAC ABT cells, Anti-DNP DAP12 SAR ABT cells, or Anti-CD28 CAR ABT-cells. […] To stop the activation 20 mM EDTA was added and incubated for 15 minutes. Cells were stained for surface expression of CD4 and CD8, fixed and permeabilized in Cytofix/Cytoperm buffer, and stained with APC-conjugated mouse anti-human interferon-gamma, and FITC-conjugated mouse anti-human tumor necrosis factor-alpha. Cells were then run on the Beckman Coulter Cytoflex flow cytometer. The percent of cells positive for tumor necrosis factor-alpha and interferon-gamma for CD4 and CD8 T-cell populations were graphed separately showing the same overall trends.

293-PSMA cells [6] = assay: CD69 and Nur77 expression of activated ABT cells with 293-PSMA cells; format: cell-based, human; details: Anti-DNP TAC-T cells; 10 nM and 1 nM
Text: Cells were stained for surface marker expression via Pacific Blue-conjugated mouse anti-human CD4, and AlexaFluor700-conjugated mouse anti-human CD8a, VioBright FITC-conjugated mouse anti-human NGFR, and anti-huCD69, fixed and permeabilized in Permiabilization concentrate diluted in permeabilization diluent, and stained intracellularly with PE-conjugated mouse anti-mouse Nur77.

[7] = tested on: PSMA transduced HEK-293 cells; assay: IFN-gamma / TNF-alpha production of Anti-DNP TAC ABT cells following stimulation with HEK-293 PSMA cells; format: cell-based, human; details: Anti-DNP TAC ABT cells prelabelled 6 hours; co-culture 4 hours
Procedure: The cells were co-cultured together for 4 hours at 37 degrees. Golgi plug was added prior to the co-incubation to prevent cytokine secretion. To stop the activation 20 mM EDTA was added and incubated for 15 minutes. The cells were spun down, media was aspirated, and the cells were stored in 200 μL of cRPMI overnight at 4 degrees. The next day, the cells were surface stained with anti-CD4 Pacific Blue, anti-CD8 Alexa Fluor 700, and anti-NGFR Viobright FITC. The cells were then fixed and permeabilized using a fix/perm buffer solution. The cells were then intracellularly stained with anti-CD3 BV605, anti-TNF-alpha PE-CY7, and anti-IFN-gamma APC. Cells were then run on the Beckman Coulter Cytoflex flow cytometer. The percent of cells positive for TNF-alpha and IFN-gamma, as well as cells positive for both were recorded in the table for the separate CD4 and CD8 T-cell populations.

[8] = tested on: PSMA-positive LNCaP cells; assay: Anti-DNP GDT cell mediated killing of LNCaP cells (Incucyte); format: cell-based, human
Procedure: Measuring T cell mediated killing of LNCaP cells: LNCaP prostate cancer cells, which are prostate specific membrane antigen (PSMA) positive, were engineered with Nuclight Red lentivirus to produce cells with nuclear localized red fluorescence to allow for ease of imaging in these experiments. […] Samples were run in triplicate. The number of LNCaP cells per well at each time point was calculated using the Incucyte cell by cell analysis software and plotted. The area under the growth curve was used as a metric for tumor cell growth for this figure. The larger the area, the greater the tumor cell growth that occurred over the 3 days. The area under the curve for the LNCaP control and each condition were used to calculate the % cytotoxicity.

[9] = tested on: PSMA transduced HEK-293 cells; assay: CD69 upregulation of DNP-TAC T cells following stimulation with HEK-293 PSMA cells; format: cell-based, human; details: DNP-TAC T cells pre labelled 6 hours; co-culture overnight
Procedure: The cells were co-cultured together overnight at 37 degrees. To stop the activation, 20 mM EDTA was added and incubated for 15 minutes. The cells were spun down, media was aspirated, and the cells were stored in 200 μL of cRPMI at 4 degrees prior to staining. The cells were stained with Live-Dead Zombie Aqua, anti-CD3 BV605, anti-CD4 Pacific Blue, anti-CD8 Alexa Fluor 700, anti-NGFR Viobright FITC, and anti-CD69 BV650. Upon staining the cells were run on the Beckman Coulter Cytoflex flow cytometer and analyzed for CD69 expression.

293-PSMA cells [10] = assay: Proliferation of adapter functionalized engineered ABT cells (CellTrace Violet); format: cell-based, human
Procedure: Each engineered T cell was also cultured in media alone as a control to compare to. All proliferation assay samples were incubated for 3 days at 37° C. and 5% CO2. Cells were then stained with Live/Dead Fixable Near-IR stain, PerCP-Cy5.5-conjugated mouse anti-human CD8a, Alexa Fluor 700-conjugated mouse anti-human CD4, VioBright FITC-conjugated mouse anti-human NGFR, and BV605-conjugated mouse anti-human CD3. Flow cytometry data were acquired.

## CC1NC(=O)NC1CCCCCC(=O)NCCOCCOC(=O)NCCOCCNC(=O)CNc1ccc([N+](=O)[O-])cc1[N+](=O)[O-] (stereo not shown) [DNP-Desthiobiotin, reference compound]
[1]
  labeling time course (binding): minimal binding
[2]
  labeling time course (binding): complete absence of binding
  covalent binding and labeling of T cells (Streptavidin-PE): cannot
[3]
  labeling time course (binding): minimal binding

## CC1NC(=O)NC1CCCCCC(=O)NCCOCCOCCOCCOC(=O)n1cnc(CCNC(=O)CNc2ccc([N+](=O)[O-])cc2[N+](=O)[O-])c1 (stereo not shown) [DNP-Acyl Imidazole-Desthiobiotin]
[1]
  labeling time course (binding): rapid covalent binding
[2]
  labeling time course (binding): rapid covalent binding
  time to maximal loading of DNP-TAC T cells: several hours
  time until all Anti-DNP TAC T cells are loaded: ≤ 30 min
  covalent binding and labeling of T cells (Streptavidin-PE): can covalently bind and label
[3]
  labeling time course (binding): rapid covalent binding

## O=C(O)CC[C@H](NC(=O)N[C@@H](CCCCNC(=O)NCCOCCOCCOCCOCCOCCOCCOCCOC(=O)NCCOCCNC(=O)CNc1ccc([N+](=O)[O-])cc1[N+](=O)[O-])C(=O)O)C(=O)O [PSMA-(N)CIR, DNP-Glutamate-Urea-Lysine, reference compound]
[4]; E:T 8:1, 15.63 nM to 125 nM, 3 days
  killing of LNCaP cells: unable to direct T cell cytotoxicity; also recorded: did not promote killing of LNCaP cells at any concentration
[4]; E:T 8:1, 3 days
  concentration effective at engaging tumor killing: > 125 nM
[5]; CD28-CAR T cells, highest concentration (100 nM)
  cytokine production: equivalent levels of cytokine production
[5]; DAP12-SAR T cells, 1, 10, 100 nM
  cytokine production: some cytokine production was observed with higher concentrations; also recorded: could be activated by both CIR and (N)CIR
[5]; TAC T cells, 1, 10, 100 nM
  cytokine production: no cytokine production
293-PSMA cells [6]
  T cell activation (Nur77, CD69): only the PSMA-CIR could elicit T cell activation
[7]
  production of IFN-gamma and TNF-alpha: failed to demonstrated any evidence of activation
[8]; Anti-DNP CD28 CAR GDT cells, 10 nM or 1 nM adapter
  killing of LNCaP cells at limiting concentration: inability of the PSMA-(N)CIR to effectuate killing
[8]; Anti-DNP CD28 CAR GDT cells, 15 nM to 250 nM
  tumor killing over a range of concentrations: diminished at lower levels
[8]; Anti-DNP CD28 CAR GDT cells, 125 nM adapter
  killing of LNCaP cells: could direct T cell cytotoxicity; also recorded: displayed tumor growth control
[8]; Anti-DNP DAP12-SAR GDT cells, 125 nM adapter
  killing of LNCaP cells: unable to direct T cell cytotoxicity
[8]; Anti-DNP DAP12 SAR GDT cells
  adapter concentration at which tumor killing is observed: > 125 nM
[8]; Anti-DNP DAP12 SAR GDT cells, 250 nM (highest concentration)
  killing of LNCaP cells: only weak killing
[8]; Anti-DNP DAP12 SAR and Anti-DNP CD28 CAR GDT cells, 1 uM adapter for 6 hours, washed, then co-culture
  killing of LNCaP cells after preincubation and wash: Only the T cells incubated with the PSMA-CIR retained the ability to kill
[8]; CD28 CAR GDT cells, 10 nM adapter
  killing of LNCaP cells: unable to elicit any killing
[8]; both Anti-DNP DAP12-SAR GDT cells and Anti-DNP CD28 CAR GDT cells, 15.6 nM-250 nM
  LNCaP killing over a range of concentrations: killing diminished with lower concentrations
[9]
  T cell activation based on upregulation of CD69: failed to demonstrated any evidence of activation
293-PSMA cells [10]; Anti-DNP12 SAR T cells, 1 nM or 10 nM
  T cell proliferation (percent divided): did not proliferate
293-PSMA cells [10]; Anti-DNP DAP12 SAR T cells, 1 nM, 10 nM, or 100 nM
  T cell proliferation (percent divided): little proliferation
293-PSMA cells [10]; Anti-DNP DAP12 SAR T cells, 100 nM
  T cell proliferation (percent divided): modest proliferation
293-PSMA cells [10]; Anti-DNP TAC T cells, 1, 10, 100 nM, 3 days
  T cell proliferation (percent divided): failed to proliferate above background; also recorded: little proliferation
